# Experiments:
# [1] = target: T1, D-serine uptake in rat cerebellar synaptosomes (Rattus norvegicus, UniProt P63116); assay: [3H]D-serine uptake in rat cerebellar synaptosomes; assay type: biochemical
# T1 construct: from tissue; host or cells: rat cerebellar synaptosomes
# T1 sequence (P63116 1-530): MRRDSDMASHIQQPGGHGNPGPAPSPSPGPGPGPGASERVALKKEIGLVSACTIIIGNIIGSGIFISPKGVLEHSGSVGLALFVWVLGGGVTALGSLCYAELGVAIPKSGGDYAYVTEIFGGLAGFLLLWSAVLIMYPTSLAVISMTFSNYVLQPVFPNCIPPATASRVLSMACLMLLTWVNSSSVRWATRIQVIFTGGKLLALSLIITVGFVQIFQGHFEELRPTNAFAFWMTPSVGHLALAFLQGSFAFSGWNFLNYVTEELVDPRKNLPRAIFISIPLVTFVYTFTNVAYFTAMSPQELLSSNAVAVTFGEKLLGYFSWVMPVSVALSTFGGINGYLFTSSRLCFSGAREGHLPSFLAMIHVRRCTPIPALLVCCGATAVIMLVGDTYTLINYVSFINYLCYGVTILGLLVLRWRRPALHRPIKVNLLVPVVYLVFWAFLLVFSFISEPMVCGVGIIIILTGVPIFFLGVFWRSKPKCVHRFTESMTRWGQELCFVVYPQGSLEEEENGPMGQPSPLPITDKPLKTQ
# T1 sequence (Q794F9 1-527 partner): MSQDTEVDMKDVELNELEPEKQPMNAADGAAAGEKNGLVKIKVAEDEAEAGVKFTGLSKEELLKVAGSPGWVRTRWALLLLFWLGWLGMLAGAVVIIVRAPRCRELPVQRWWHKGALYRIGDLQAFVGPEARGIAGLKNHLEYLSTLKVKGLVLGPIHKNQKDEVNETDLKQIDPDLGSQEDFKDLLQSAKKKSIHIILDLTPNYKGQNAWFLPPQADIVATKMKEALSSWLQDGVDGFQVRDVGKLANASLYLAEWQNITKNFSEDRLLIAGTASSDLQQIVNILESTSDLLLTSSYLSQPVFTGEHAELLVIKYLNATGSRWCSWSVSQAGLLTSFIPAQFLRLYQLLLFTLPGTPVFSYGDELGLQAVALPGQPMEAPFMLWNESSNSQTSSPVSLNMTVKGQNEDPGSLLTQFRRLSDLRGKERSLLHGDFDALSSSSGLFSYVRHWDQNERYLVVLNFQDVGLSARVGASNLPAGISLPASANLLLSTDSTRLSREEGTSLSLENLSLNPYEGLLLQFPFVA
# human GlyT-1B = target: T2, human GlyT-1B (Homo sapiens, UniProt P48067); assay: [3H]-glycine uptake into CHO cells expressing human GlyT-1B; assay type: cell-based
# T2 construct: expressed in transfected cells; host or cells: CHO cells
# T2 sequence (P48067 1-652 isoform P48067-3): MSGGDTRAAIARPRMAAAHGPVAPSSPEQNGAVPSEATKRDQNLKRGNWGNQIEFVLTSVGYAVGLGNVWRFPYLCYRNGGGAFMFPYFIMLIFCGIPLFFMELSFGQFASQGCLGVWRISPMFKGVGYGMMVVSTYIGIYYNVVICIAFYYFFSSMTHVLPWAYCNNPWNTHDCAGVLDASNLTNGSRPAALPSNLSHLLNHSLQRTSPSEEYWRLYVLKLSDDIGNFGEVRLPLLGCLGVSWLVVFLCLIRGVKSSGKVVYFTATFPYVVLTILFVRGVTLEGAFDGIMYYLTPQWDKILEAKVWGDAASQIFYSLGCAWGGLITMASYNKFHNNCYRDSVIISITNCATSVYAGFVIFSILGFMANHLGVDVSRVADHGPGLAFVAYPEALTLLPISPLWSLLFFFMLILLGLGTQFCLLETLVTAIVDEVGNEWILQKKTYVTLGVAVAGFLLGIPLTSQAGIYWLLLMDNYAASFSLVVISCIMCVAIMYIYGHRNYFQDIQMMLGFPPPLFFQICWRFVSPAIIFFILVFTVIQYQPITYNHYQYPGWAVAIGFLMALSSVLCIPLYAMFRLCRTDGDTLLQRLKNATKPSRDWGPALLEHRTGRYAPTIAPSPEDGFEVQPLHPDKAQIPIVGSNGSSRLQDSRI
# Protocol: Measurements of [^3H]-glycine uptake into CHO cells expressing human GlyT-1B were performed in 96 well plates using 1 μCi [^3H]-glycine/well. Cells were plated 2 days before the experiment and washed twice with assay buffer (composition: 150 mM NaCl, 10 mM glucose, 2.5 mM KCl, 1 mM CaCl2, 2.5 mM MgSO4, 10 mM HEPES, pH 7.4). Test compounds were added 10 min before radioligand and cells were incubated for a further 15 min at 37° C. Cells were washed as described for [3 H]-D-serine uptake into asc-1 cells. Non-specific uptake was defined as uptake in the presence of 100 μM N-methyl-N-(phenyl-trifluoromethylphenoxy)propan-1-yl-glycine.
# [2] = target: noradrenaline (NA) uptake (Rattus norvegicus, UniProt Q63380); assay: [3H]noradrenalin uptake into rat cortical synaptosomes; assay type: biochemical; details: read-out: Ki, block of noradrenaline transport
# Protocol: (§1) Inhibition of serotonin (5-HT), dopamine (DA) and noradrenaline (NA) uptake in vitro was measured in rat brain synaptosomes using a modification of a previously described protocol (Bøgesø et al., J Med Chem 1985, 28, 1817-1828). In brief, tritium labelled amines were used to measure uptake into synaptosomes from whole rat brain (excluding cerebellum) ([^3H]serotonin), rat striatal synaptosomes ([^3H]dopamine) or into rat cortical synaptosomes [^3H]noradrenalin. The dissected rat brain regions were homogenized in 0.40 M sucrose supplemented with 1 mM nialamid and centrifuged at 1000×g for 10 min. The supernatants were further centrifuged for 30 min at 20.000×g, 4° C. and resuspended in Krebs-Ringer buffer, pH 7.4 supplemented with 0.2 g/l ascorbic acid. Test compounds and membranes were added in 96 well plates and the incubation was started by adding either 10 nM [^3H]serotonin, 12.5 nM [^3H]dopamine or 10 nM [^3H]noradrenalin for 15 min at 37° C. except for [^3 H]dopamine uptake (5 min at 20° C.). Non-specific uptake was defined as uptake in the presence of 10 μM citalopram, 100 μM benttropin or 20 μM talsupram, respectively and accounted for 5-10% of total uptake. Samples were filtered over Whatman GF/C filters and the IC50's were estimated using non-linear regression analysis from at least 8 points dose-response curves with triplicate determinations.
# dopamine (DA) uptake = target: T3, dopamine (DA) uptake (Rattus norvegicus, UniProt P23977); assay: [3H]dopamine uptake into rat striatal synaptosomes; assay type: biochemical
# T3 construct: from tissue; host or cells: rat striatal synaptosomes
# Protocol: as §1
# serotonin (5-HT) uptake = target: T4, serotonin (5-HT) uptake (Rattus norvegicus, UniProt P31652); assay: [3H]serotonin uptake into rat brain synaptosomes; assay type: biochemical
# T4 construct: from tissue; host or cells: synaptosomes from whole rat brain excluding cerebellum
# Protocol: as §1
# T3 sequence (P23977 whole entry): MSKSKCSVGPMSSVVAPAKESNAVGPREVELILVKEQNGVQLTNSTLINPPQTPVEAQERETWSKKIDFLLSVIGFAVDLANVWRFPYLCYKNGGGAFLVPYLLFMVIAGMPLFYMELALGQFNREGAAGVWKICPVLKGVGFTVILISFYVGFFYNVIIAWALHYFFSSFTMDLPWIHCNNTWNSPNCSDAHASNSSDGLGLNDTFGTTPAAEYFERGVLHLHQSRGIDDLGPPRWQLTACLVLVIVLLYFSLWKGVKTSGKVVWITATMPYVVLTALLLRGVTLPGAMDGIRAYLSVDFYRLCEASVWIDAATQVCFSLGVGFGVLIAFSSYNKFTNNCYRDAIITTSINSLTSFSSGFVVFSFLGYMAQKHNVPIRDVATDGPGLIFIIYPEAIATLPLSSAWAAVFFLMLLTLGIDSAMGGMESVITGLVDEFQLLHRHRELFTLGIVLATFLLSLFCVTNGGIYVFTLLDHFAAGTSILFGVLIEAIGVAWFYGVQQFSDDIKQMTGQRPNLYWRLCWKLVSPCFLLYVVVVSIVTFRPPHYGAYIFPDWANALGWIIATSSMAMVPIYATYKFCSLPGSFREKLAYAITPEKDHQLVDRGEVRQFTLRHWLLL
# T4 sequence (P31652 whole entry): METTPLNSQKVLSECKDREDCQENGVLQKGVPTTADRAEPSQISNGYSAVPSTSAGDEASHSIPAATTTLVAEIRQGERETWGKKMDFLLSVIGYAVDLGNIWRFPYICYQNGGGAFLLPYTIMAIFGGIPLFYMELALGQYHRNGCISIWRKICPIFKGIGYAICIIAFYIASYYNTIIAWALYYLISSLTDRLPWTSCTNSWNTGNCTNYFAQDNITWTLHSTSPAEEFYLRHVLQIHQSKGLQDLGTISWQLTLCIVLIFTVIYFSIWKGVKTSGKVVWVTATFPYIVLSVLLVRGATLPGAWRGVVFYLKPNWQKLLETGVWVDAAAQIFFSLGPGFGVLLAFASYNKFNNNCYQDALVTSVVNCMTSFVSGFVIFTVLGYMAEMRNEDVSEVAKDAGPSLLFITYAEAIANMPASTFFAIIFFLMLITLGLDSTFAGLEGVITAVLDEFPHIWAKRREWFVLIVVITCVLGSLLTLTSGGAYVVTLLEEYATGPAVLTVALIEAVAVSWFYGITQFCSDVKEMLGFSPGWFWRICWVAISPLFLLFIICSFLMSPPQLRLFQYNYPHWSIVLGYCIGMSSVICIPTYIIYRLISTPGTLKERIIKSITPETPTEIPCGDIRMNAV
# noradrenaline (NA) uptake, sequence (Q63380 1-617): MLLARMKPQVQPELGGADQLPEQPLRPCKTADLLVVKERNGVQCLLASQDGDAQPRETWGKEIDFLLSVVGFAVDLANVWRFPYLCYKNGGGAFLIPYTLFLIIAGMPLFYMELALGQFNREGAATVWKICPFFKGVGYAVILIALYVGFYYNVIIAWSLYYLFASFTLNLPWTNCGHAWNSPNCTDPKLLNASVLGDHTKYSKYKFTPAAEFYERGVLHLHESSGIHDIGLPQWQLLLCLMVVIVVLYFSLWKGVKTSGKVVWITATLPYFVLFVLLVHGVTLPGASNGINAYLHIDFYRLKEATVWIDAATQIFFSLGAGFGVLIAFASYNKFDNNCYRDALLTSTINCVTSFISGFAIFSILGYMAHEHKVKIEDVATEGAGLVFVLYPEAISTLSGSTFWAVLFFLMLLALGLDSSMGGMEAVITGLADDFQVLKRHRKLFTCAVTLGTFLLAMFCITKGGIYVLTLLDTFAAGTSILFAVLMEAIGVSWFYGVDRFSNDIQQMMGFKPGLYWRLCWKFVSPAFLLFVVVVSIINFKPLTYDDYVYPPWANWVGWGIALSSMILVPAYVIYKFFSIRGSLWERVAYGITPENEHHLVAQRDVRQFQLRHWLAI
compound,measurement,setting,value
CSCC(N)C(=O)O (stereo in doubt) [(S)-methyl-L-cysteine],inhibition of D-serine uptake in rat cerebellar synaptosomes (in words),[1],potent and selective inhibitor
same,Ki,human GlyT-1B,> 100 µM
same,Ki,[2],> 1000 µM
same,Ki,dopamine (DA) uptake,> 1000 µM
same,Ki,serotonin (5-HT) uptake,> 1000 µM

# From patent US20050176826A1, “Use of asc-1 inhibitors to treat neurological and psychiatric disorders” (H. Lundbeck A/S, priority 2002, published 2005)
